{"source": "patent US20240207215A1", "about": "“MARC1 INHIBITORS FOR TREATMENT OF LIPID METABOLISM DISORDERS” (priority 2020, published 2024)", "key": {"[1]": {"target": "T1, human mARC1 (Homo sapiens, UniProt Q5VT66)", "T1 construct": "made in house; host or cells: Escherichia coli", "T1 sequence (Q5VT66 53-337 limits assumed)": "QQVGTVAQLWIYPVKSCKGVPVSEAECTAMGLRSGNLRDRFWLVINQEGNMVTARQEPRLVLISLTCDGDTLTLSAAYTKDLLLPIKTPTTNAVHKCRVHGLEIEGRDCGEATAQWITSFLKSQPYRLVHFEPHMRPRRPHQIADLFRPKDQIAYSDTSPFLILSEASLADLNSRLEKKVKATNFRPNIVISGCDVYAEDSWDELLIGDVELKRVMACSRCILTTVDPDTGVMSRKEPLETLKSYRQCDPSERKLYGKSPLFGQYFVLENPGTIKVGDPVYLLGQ", "assay": "mARC1 three-component system (mARC1, cytochrome b5, cytochrome b5 reductase): conversion of benzamidoxime to benzamidine, NADH consumption at 340 nm / HPLC of benzamidine", "type": "biochemical", "conditions": "recombinant mARC1 + CYB5B + CYB5R3, NADH, substrate BAO, 37° C., MES pH 6.0; FIGS. 1-4 (N-hydroxyurethane and urethane 1 mM in FIGS. 1, 3)", "procedure": "(§1) The compounds N-hydroxyurethane (R1═H, R2═CH2CH3) and ethyl-N-(3-chlorophenyl) -hydroxycarbamate (R1═3-chlorophenyl, R2═CH2CH3) are used as examples of active compounds. FIGS. 1, 3 and 4 show the absorbance at 340 nm in dependence on the time for an incubation with the three-component system mARC1 and mARC2, respectively, cytochrome b5 and cytochrome b5 reductase, which catalyze the conversion of the model substrate benzamidoxime (BAO) to benzamidine in the presence of the cosubstrate NADH (5). The decrease in the concentration of NADH due to its absorption maximum at 340 nm is thereby measured. From the measurement results, which are shown in the bar graph of FIG. 4, the inhibition of the conversion of benzamidoxime to benzamidine is evident by the lower consumption of NADH. NADH represents the required cosubstrate for the conversion. […] The down-regulation is only observed for mARC1 and not for mARC2 (FIG. 2).\n(§2) 105 μl MES buffer (20 mM, pH 6.0) was placed in a micro-UV cuvette. […] This batch was then set as a blank sample and the absorbance was zeroed. […] Herein, the absorbance spectrum between 300 nm and 400 nm was recorded every 30 s for a period of 10 min (spectrophotometer Cary® 50 Bio with Walter peltier system PCB 150, Agilent). […] The conversion rates of BAO with and without inhibitor were compared based on the absorbance change at 340 nm to determine the degree of inhibition. […]"}, "[2]": {"system": "cytochrome b5 and/or cytochrome b5 reductase", "assay": "Inhibition of the electron transport partners, concluded from the non-inhibited mARC2 conversion", "type": "biochemical, human", "conditions": "concluded from the non-inhibited conversion for mARC2", "procedure": "as §1, §2"}, "[3]": {"target": "T2, human mARC2 (Homo sapiens, UniProt Q969Z3)", "T2 construct": "made in house; host or cells: Escherichia coli", "T2 sequence (Q969Z3 36-335)": "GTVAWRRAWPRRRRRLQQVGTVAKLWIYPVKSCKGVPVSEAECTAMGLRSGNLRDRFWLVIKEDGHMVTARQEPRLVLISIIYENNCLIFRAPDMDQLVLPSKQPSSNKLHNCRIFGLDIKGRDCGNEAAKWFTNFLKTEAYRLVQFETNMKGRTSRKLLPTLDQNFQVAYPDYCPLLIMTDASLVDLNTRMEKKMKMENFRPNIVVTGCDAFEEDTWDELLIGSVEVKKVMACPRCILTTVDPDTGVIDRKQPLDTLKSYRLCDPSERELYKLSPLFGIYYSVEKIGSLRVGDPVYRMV", "assay": "mARC2 three-component system (mARC2, cytochrome b5, cytochrome b5 reductase): conversion of benzamidoxime to benzamidine, NADH consumption at 340 nm / HPLC of benzamidine", "type": "biochemical", "conditions": "recombinant mARC2 + CYB5B + CYB5R3, NADH, substrate BAO; FIG. 2", "procedure": "as §1, §2"}}, "data": [{"smiles": "CCOC(=O)NO", "note": "[N-hydroxyurethane]", "values": [{"measurement": "inhibition of the conversion of benzamidoxime to benzamidine by mARC1", "setting": "[1]", "result": "inhibition occurs"}, {"measurement": "inhibition of cytochrome b5 and/or cytochrome b5 reductase", "setting": "[2]", "result": "are not inhibited"}, {"measurement": "down-regulation of the conversion of benzamidoxime to benzamidine by mARC2", "setting": "[3]", "result": "not for mARC2"}]}, {"smiles": "CCOC(=O)N(O)c1cccc(Cl)c1", "note": "[ethyl-N-(3-chlorophenyl)-hydroxycarbamate]", "values": [{"measurement": "inhibition of the conversion of benzamidoxime to benzamidine by mARC1", "setting": "[1]", "result": "inhibition occurs"}]}]}
